Measurements: PubChem BioAssay (NCI)
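Interpolation was linear, between the two tested concentrations surrounding the appropriate level; five concentrations were tested over 48 hours in 96-well plates. At the TGI there is no net growth.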

Legend:
Experiment in all cases: NCI tumour cell line growth inhibition, 48 h
[1] = tested on: DMS 114 small cell lung
[2] = tested on: CCRF-CEM leukemia
[3] = tested on: SNB-75 CNS
[4] = tested on: UO-31 renal
[5] = tested on: A498 renal
[6] = tested on: SK-MEL-28 melanoma
[7] = tested on: HCT-116 colon
[8] = tested on: SF-268 CNS
[9] = tested on: LXFL 529 NSCLC
[10] = tested on: SF-539 CNS
[11] = tested on: M14 melanoma
[12] = tested on: SK-MEL-2 melanoma
[13] = tested on: HOP-92 NSCLC
[14] = tested on: COLO 205 colon
[15] = tested on: SNB-78 CNS
[16] = tested on: HCC-2998 colon
[17] = tested on: K-562 leukemia
[18] = tested on: SR leukemia
[19] = tested on: IGROV1 ovarian
[20] = tested on: HOP-62 NSCLC
[21] = tested on: OVCAR-4 ovarian
[22] = tested on: MALME-3M melanoma
[23] = tested on: CAKI-1 renal
[24] = tested on: SN12C renal
[25] = tested on: NCI-H23 lung
[26] = tested on: RXF-631 renal
[27] = tested on: DLD-1 colon
[28] = tested on: DMS 273 small cell lung
[29] = tested on: NCI-H522 lung
[30] = tested on: NCI-H460 lung
[31] = tested on: 786-0 renal
[32] = tested on: M19-MEL melanoma
[33] = tested on: NCI-H226 lung
[34] = tested on: HL-60(TB) leukemia
[35] = tested on: SK-OV-3 ovarian
[36] = tested on: XF 498 CNS
[37] = tested on: UACC-62 melanoma
[38] = tested on: UACC-257 melanoma
[39] = tested on: SK-MEL-5 melanoma
[40] = tested on: HOP-18 NSCLC
[41] = tested on: KM12 colon
[42] = tested on: TK-10 renal
[43] = tested on: LOX IMVI melanoma
[44] = tested on: KM20L2 colon
[45] = tested on: OVCAR-8 ovarian
[46] = tested on: SF-295 CNS
[47] = tested on: OVCAR-3 ovarian
[48] = tested on: MOLT-4 leukemia
[49] = tested on: ACHN renal
[50] = tested on: OVCAR-5 ovarian
[51] = tested on: SW-620 colon
[52] = tested on: U251 CNS
[53] = tested on: SNB-19 CNS
[54] = tested on: HT29 colon
[55] = tested on: A549 NSCLC
[56] = tested on: RPMI-8226 leukemia
[57] = tested on: HCT-15 colon
[58] = tested on: EKVX NSCLC

Measured: TGI

COc1cc([C@H]2Oc3c(c(O)cc4oc(-c5ccccc5)cc(=O)c34)O[C@@H]2CO)ccc1O
56.4 µM: [27]
32.5 µM: [30]
25 µM: [28]
36.2 µM: [34]
87.6 µM: [13]
57.6 µM: [12]
38.5 µM: [11]
83.4 µM: [22]
62.7 µM: [26]
36.7 µM: [18]
23.7 µM: [2]
not listed: [38] | [39] | [40] | [41] | [42] | [43] | [44] | [45] | [46] | [47] | [48] | [49] | [50] | [51] | [52] | [53] | [54] | [55] | [56] | [57] | [58]
> 100 µM: all other assays above

COc1cc(Br)c(CC2=NCCc3cc(OC)c(OC)cc32)cc1OC
43.4 µM: [16]
51.3 µM: [28]
65.8 µM: [11]
72.5 µM: [48]
87 µM: [10]
76.3 µM: [5]
36 µM: [39]
65.2 µM: [29]
73 µM: [56]
68.1 µM: [1]
70.6 µM: [38]
95.1 µM: [4]
60.3 µM: [13]
38 µM: [34]
not listed: [15] | [36]
> 100 µM: all other assays above
